From US10344019B2 (priority 2010, dated 2019)

Columns and labels:
Format in all cases: cell-based
[1] = system: HCV 2a Rluc cells (NS5A chimeric genotype 2a JFH-1 replicon with genotype 2a J6 strain NS5A gene, M31 present); assay: HCV replicon reporter assay, genotype 2a J6 (M31 present); conditions: Hepatitis C virus, read-out: 2a J6
Method in brief: (§1)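 Renilla luciferase HCV replicon cells: dicistronic 1b Con1, 1a H77 or 2a JFH-1 replicons, or a JFH-1 chimera carrying J6 NS5A (M31 present). Compound in DMSO serial dilutions, 72 h incubation, then lysis and luciferase read. EC50 by non-linear regression.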

[2] = system: HCV 1b RLuc cells (dicistronic genotype 1b Con1 replicon, RLuc reporter); assay: microbe, parasite or virus in culture; conditions: Hepatitis C virus, read-out: 1b (nM)
Method in brief: as §1

[3] = system: HCV 1a RLuc cells (dicistronic genotype 1a H77 replicon, RLuc reporter); assay: microbe, parasite or virus in culture; conditions: Hepatitis C virus, genotype 1a replicon; read-out: 1a
Method in brief: as §1

[4] = system: HCV 2a JFH-1 Rluc cells (dicistronic genotype 2a JFH-1 replicon, RLuc reporter); assay: microbe, parasite or virus in culture; conditions: Hepatitis C virus, genotype 2a JFH-1 replicon; read-out: 2a JFH
Method in brief: as §1

[5] = system: HCV 4a Rluc cells (NS5A chimeric genotype 1b Con1 replicon with genotype 4a NS5A gene); assay: microbe, parasite or virus in culture; conditions: Hepatitis C virus, read-out: 4a
Method in brief: (§2)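 Replicon cells stably carrying the listed RLuc-encoding dicistronic replicons were seeded and treated with DMSO serial dilutions of compound (10 mM stocks) diluted into culture medium. After 72 h, cells were lysed and Renilla luciferase activity measured. EC50 was derived by non-linear regression.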

[6] = system: HCV 3a RLuc cells (NS5A chimeric genotype 1b Con1 replicon with consensus genotype 3a NS5A gene); assay: microbe, parasite or virus in culture; conditions: Hepatitis C virus, read-out: 3a, genotype 3a replicon
Method in brief: as §2

[7] = system: HCV 2b Rluc cells (NS5A chimeric genotype 2a JFH-1 replicon with genotype 2b MD2b-1 NS5A gene, M31 present); assay: microbe, parasite or virus in culture; conditions: Hepatitis C virus, read-out: 2b
Method in brief: as §2

[8] = system: Q30R in genotype 1a NS5A, 1a Rluc replicon transfected into Huh-7 cured-51 cells; assay: HCV replicon assay, resistance mutant 1a Q30R; conditions: Hepatitis C virus, Huh-7, read-out: 1a Q30R
Method in brief: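 Cells were Huh-7 cured-51 transfected with replicon RNA of a genotype 1a H77 RLuc replicon carrying site-directed Q30R in NS5A.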

SMILES | EC50 [1] [nM] | EC50 [2] [nM] | EC50 [3] [nM] | EC50 [4] [nM] | EC50 [5] [nM] | EC50 [6] [nM] | EC50 [7] [nM] | EC50 [8] [nM]
COC(=O)N[C@H](C(=O)N1CCC[C@H]1c1nc2ccc3cc(-c4ccc5c(ccc6nc([C@@H]7[C@H]8CC[C@H](C8)N7C(=O)[C@H](NC(=O)OC)c7ccccc7)[nH]c65)c4)ccc3c2[nH]1)C(C)C [Example 325] | 0.001 to 0.999 | 0.018 | 0.001 to 0.999 | 0.001 to 0.999 | 0.001 to 0.99 | 0.001 to 0.99 | 1 to 44 | 1 to 44
COC(=O)N[C@H](C(=O)N1CCC[C@H]1c1nc2ccc3cc(-c4ccc5c(ccc6nc([C@@H]7[C@@H]8CC[C@@H](C8)N7C(=O)[C@@H](NC(=O)OC)C(C)C)[nH]c65)c4)ccc3c2[nH]1)C(C)C [Example 339] | 0.001 to 0.999 | 0.026 | 0.001 to 0.999 | 0.001 to 0.999 | 0.001 to 0.99 | 0.001 to 0.99 | 1 to 44 | 1 to 44
COC[C@@H]1C[C@@H](c2nc3ccc4cc(-c5ccc6c(ccc7nc([C@@H]8CCCN8C(=O)[C@@H](NC(=O)OC)C(C)C)[nH]c76)c5)ccc4c3[nH]2)N(C(=O)[C@@H](NC(=O)OC)C(C)C)C1 [Example 397] | 0.001 to 0.999 | 0.017 | 0.001 to 0.999 | 0.001 to 0.999 | 0.001 to 0.99 | 0.001 to 0.99 | 0.001 to 0.999 | 0.001 to 0.999
COC[C@H]1C[C@@H](c2nc3ccc4cc(-c5ccc6c(ccc7nc([C@@H]8CCCN8C(=O)[C@@H](NC(=O)OC)C(C)C)[nH]c76)c5)ccc4c3[nH]2)N(C(=O)[C@@H](NC(=O)OC)C(C)C)C1 [Example 398] | 0.001 to 0.999 | 0.023 | 0.001 to 0.999 | 0.001 to 0.999 | 0.001 to 0.99 | 0.001 to 0.99 | 0.001 to 0.999 | 0.001 to 0.999
COC(=O)N[C@H](C(=O)N1[C@@H]2C[C@@H]2C[C@H]1c1ncc(-c2cc3c4c(c2)OCc2cc(-c5cnc([C@@H]6C[C@H]7C[C@H]7N6C(=O)[C@@H](NC(=O)OC)C(C)C)[nH]5)cc(c2-4)OC3)[nH]1)C(C)C [Example 414] | 1 to 44 | 0.022 | 0.001 to 0.999 | 0.001 to 0.999 | 0.001 to 0.99 | 0.001 to 0.99 | 1 to 44 | 1 to 44
CCC(=O)N[C@@H](C(=O)N1[C@@H]2CC[C@@H](C2)[C@H]1c1nc2ccc3cc(-c4ccc5c(ccc6nc([C@@H]7CCCN7C(=O)[C@@H](NC(=O)OC)C(C)C)[nH]c65)c4)ccc3c2[nH]1)c1ccccc1 [Example 418] | 0.001 to 0.999 | 0.035 | 0.001 to 0.999 | 0.001 to 0.999 | 0.001 to 0.99 | 0.001 to 0.99 | 0.001 to 0.999 | 1 to 44
COC(=O)N[C@H](C(=O)N1CCC[C@H]1c1ncc(-c2ccc3c(c2)COc2cc4c(ccc5nc([C@@H]6CCCN6C(=O)[C@@H](NC(=O)OC)C(C)C)[nH]c54)cc2-3)[nH]1)C(C)C [Example 422] | 1 to 44 | 0.017 | 0.001 to 0.999 | 0.001 to 0.999 | 0.001 to 0.99 | 0.001 to 0.99 | 0.001 to 0.999 | 0.001 to 0.999
COC(=O)N[C@H](C(=O)N1CCC[C@H]1c1ncc(-c2ccc3c(c2)COc2cc4c(ccc5nc([C@@H]6CCCN6C(=O)[C@H](NC(=O)OC)c6ccccc6)[nH]c54)cc2-3)[nH]1)C(C)C [Example 423] | 0.001 to 0.999 | 0.02 | 0.001 to 0.999 | 0.001 to 0.999 | 0.001 to 0.99 | 0.001 to 0.99 | 0.001 to 0.999 | 0.001 to 0.999
COC(=O)N[C@H](C(=O)N1[C@H]2CC[C@H](C2)[C@H]1c1nc2ccc3cc(-c4ccc(-c5cnc([C@@H]6CCCN6C(=O)[C@H](NC(=O)OC)c6ccccc6)[nH]5)cc4)ccc3c2[nH]1)C(C)C [Example 424] | 0.001 to 0.999 | 0.028 | 0.001 to 0.999 | 0.001 to 0.999 | 0.001 to 0.99 | 0.001 to 0.99 | 0.001 to 0.999 | 1 to 44
COC(=O)N[C@H](C(=O)N1CCC[C@H]1c1nc2ccc3cc4c(cc3c2[nH]1)OCc1cc(-c2cnc([C@@H]3CCCN3C(=O)[C@H](NC(=O)OC)c3ccccc3)[nH]2)ccc1-4)C(C)C [Example 426] | 0.001 to 0.999 | 0.033 | 0.001 to 0.999 | 0.001 to 0.999 | 0.001 to 0.99 | 0.001 to 0.99 | 0.001 to 0.999 | 0.001 to 0.999
COC(=O)N[C@H](C(=O)N1[C@H]2CC[C@H](C2)[C@H]1c1nc2ccc3cc(-c4ccc5c(ccc6nc([C@@H]7CCCN7C(=O)[C@H](NC(=O)OC)c7ccccc7)[nH]c65)c4)ccc3c2[nH]1)C(C)C [Example 430] | 0.001 to 0.999 | 0.036 | 0.001 to 0.999 | 0.001 to 0.999 | 0.001 to 0.99 | 0.001 to 0.99 | 0.001 to 0.999 | 1 to 44
COC[C@H]1C[C@@H](c2nc3ccc4cc(-c5ccc(-c6cnc([C@@H]7CCCN7C(=O)[C@@H](NC(=O)OC)C(C)C)[nH]6)cc5)ccc4c3[nH]2)N(C(=O)[C@H](NC(=O)OC)c2ccccc2)C1 [Example 433] | 0.001 to 0.999 | 0.02 | 0.001 to 0.999 | 0.001 to 0.999 | 0.001 to 0.99 | 0.001 to 0.99 | 0.001 to 0.999 | 0.001 to 0.999
COC[C@H]1C[C@@H](c2nc3ccc4cc(-c5ccc6c(ccc7nc([C@@H]8C[C@H](COC)CN8C(=O)[C@@H](NC(=O)OC)C(C)C)[nH]c76)c5)ccc4c3[nH]2)N(C(=O)[C@@H](NC(=O)OC)C(C)C)C1 [Example 436] | 0.001 to 0.999 | 0.051 | 0.001 to 0.999 | 0.001 to 0.999 | 0.001 to 0.99 | 0.001 to 0.99 | 0.001 to 0.999 | 0.001 to 0.999
COC[C@H]1C[C@@H](c2nc3ccc4cc(-c5ccc6c(ccc7nc([C@@H]8C[C@H](COC)CN8C(=O)[C@H](NC(=O)OC)c8ccccc8)[nH]c76)c5)ccc4c3[nH]2)N(C(=O)[C@@H](NC(=O)OC)C(C)C)C1 [Example 437] | 0.001 to 0.999 | 0.048 | 0.001 to 0.999 | 0.001 to 0.999 | 0.001 to 0.99 | 0.001 to 0.99 | 0.001 to 0.999 | 0.001 to 0.999
COC(=O)N[C@H](C(=O)N1CCC[C@H]1c1ncc(-c2ccc(-c3ccc4c(ccc5nc([C@@H]6CCCN6C(=O)[C@@H](NC(=O)OC)C(C)C)[nH]c54)c3)c(C#Cc3ccccc3)c2)[nH]1)C(C)C [Example 438] | > 44 | 0.003 | 0.001 to 0.999 | 0.001 to 0.999 | 0.001 to 0.99 | 0.001 to 0.99 | > 44 | 1 to 44
COC[C@H]1C[C@@H](c2ncc(-c3ccc(-c4ccc5c(ccc6nc([C@@H]7CCCN7C(=O)[C@@H](NC(=O)OC)C(C)C)[nH]c65)c4)cc3)[nH]2)N(C(=O)[C@H](NC(=O)OC)c2ccccc2)C1 [Example 446] | 0.001 to 0.999 | 0.03 | 0.001 to 0.999 | 0.001 to 0.999 | 0.001 to 0.99 | 0.001 to 0.99 | 0.001 to 0.999 | 0.001 to 0.999
COC[C@H]1C[C@@H](c2nc3ccc4cc(-c5ccc6c(ccc7nc([C@@H]8CCCN8C(=O)[C@@H](NC(=O)OC)C(C)C)[nH]c76)c5)ccc4c3[nH]2)N(C(=O)[C@H](NC(=O)OC)c2ccccc2)C1 [Example 453] | 0.001 to 0.999 | 0.018 | 0.001 to 0.999 | 0.001 to 0.999 | 0.001 to 0.99 | 0.001 to 0.99 | 0.001 to 0.999 | 0.001 to 0.999
COC[C@H]1C[C@@H](c2nc3ccc4cc(-c5ccc6c(ccc7nc([C@@H]8CCCN8C(=O)[C@H](NC(=O)OC)c8ccccc8)[nH]c76)c5)ccc4c3[nH]2)N(C(=O)[C@@H](NC(=O)OC)C(C)C)C1 [Example 454] | 0.001 to 0.999 | 0.028 | 0.001 to 0.999 | 0.001 to 0.999 | 0.001 to 0.99 | 0.001 to 0.99 | 0.001 to 0.999 | 0.001 to 0.999
COC[C@H]1C[C@@H](c2nc3ccc4cc(-c5ccc6c(ccc7nc([C@@H]8C[C@H]9C[C@H]9N8C(=O)[C@@H](NC(=O)OC)C(C)C)[nH]c76)c5)ccc4c3[nH]2)N(C(=O)[C@H](NC(=O)OC)c2ccccc2)C1 [Example 472] | 0.001 to 0.999 | 0.01 | 0.001 to 0.999 | 0.001 to 0.999 | 0.001 to 0.99 | 0.001 to 0.99 | 0.001 to 0.999 | 0.001 to 0.999
COC[C@H]1C[C@@H](c2nc3ccc4cc(-c5ccc(-c6cnc([C@@H]7CCCN7C(=O)[C@@H](NC(=O)OC)C(C)C)[nH]6)cc5)ccc4c3[nH]2)N(C(=O)[C@H](NC(=O)C2CC2)c2ccccc2)C1 [Example 475] | 0.001 to 0.999 | 0.019 | 0.001 to 0.999 | 0.001 to 0.999 | 0.001 to 0.99 | 0.001 to 0.99 | 0.001 to 0.999 | 0.001 to 0.999
